Read-outs that look alike come from different tables or passages of the source.
Molecular target: T1, LG586 enzyme (Homo sapiens, UniProt Q9Y4D2)
T1 sequence (Q9Y4D2 1-1042): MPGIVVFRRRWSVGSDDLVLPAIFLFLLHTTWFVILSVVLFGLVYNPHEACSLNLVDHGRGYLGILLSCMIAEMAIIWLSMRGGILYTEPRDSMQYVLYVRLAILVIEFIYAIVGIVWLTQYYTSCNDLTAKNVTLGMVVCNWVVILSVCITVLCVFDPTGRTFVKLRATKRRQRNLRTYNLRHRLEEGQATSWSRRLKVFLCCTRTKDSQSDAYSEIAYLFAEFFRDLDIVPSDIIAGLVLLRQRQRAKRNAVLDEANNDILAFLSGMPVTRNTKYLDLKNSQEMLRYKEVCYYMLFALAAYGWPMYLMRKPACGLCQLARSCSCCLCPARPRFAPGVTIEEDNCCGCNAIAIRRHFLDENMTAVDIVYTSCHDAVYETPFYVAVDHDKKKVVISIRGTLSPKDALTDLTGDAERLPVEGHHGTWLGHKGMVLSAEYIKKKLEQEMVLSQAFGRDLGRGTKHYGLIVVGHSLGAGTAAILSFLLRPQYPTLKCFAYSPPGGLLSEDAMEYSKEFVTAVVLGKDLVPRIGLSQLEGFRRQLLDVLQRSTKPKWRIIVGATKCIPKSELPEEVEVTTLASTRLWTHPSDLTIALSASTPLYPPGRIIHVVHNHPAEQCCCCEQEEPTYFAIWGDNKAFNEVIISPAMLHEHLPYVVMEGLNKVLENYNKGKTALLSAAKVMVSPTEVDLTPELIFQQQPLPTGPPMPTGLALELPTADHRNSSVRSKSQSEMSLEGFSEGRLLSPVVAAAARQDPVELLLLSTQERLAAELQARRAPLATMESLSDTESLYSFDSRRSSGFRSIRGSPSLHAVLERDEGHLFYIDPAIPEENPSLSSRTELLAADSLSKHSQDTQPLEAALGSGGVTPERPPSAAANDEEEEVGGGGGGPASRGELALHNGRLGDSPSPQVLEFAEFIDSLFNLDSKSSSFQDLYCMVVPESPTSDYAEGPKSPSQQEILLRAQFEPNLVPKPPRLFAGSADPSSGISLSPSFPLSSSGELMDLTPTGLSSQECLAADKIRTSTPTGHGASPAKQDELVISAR
Assay type: biochemical
Settings: LG586 membrane prep, 250 μM PNP substrate, 10 min preincubation
Description: Black non-binding surface Corning plates (3655) were spotted with 0.9 μL of compound in twenty point 1:3 dilutions. The same volume of dimethyl sulfoxide (DMSO) was added to column 23 of the plate.
A membrane prep from a stable HEK cell line expressing LG586 was prepared by the Cell Resource Group at BMS in Hopewell, N.J. The protein concentration of the membrane prep was 1.28 μg/μL. […] For the assay, membrane was thawed to room temperature and then added to the assay buffer, 100 mM HEPES in MQ water at pH 7.5. The concentration of the LG586 enzyme in the assay is 0.005 μg/mL.
The substrate used in this assay was purchased from Sigma (N9876) p-nitrophenyl butyrate (PNP). The substrate is received in the liquid form and must be diluted with DMSO. […] The final concentration of the substrate is 250 μM.
Enzyme was added to the plates 80 μL/well using a Multi-drop Combi (Thermo). The plates were incubated with the compound for 10 minutes at room temperature. Then 9 μL of substrate was added to each well and the plates were immediately read on the Viewlux Imager (Perkin Elmer) in absorbance mode with the excitation filter of 405 nm and emission filter of 564/250 nm. The read was kinetic, plates were read once every 30 seconds for 5 minutes and then slopes were calculated for each well and the data was reduced with in-house software.

With “2-(2,2-dimethyl-N-(4-(naphthalen-1-yl)benzyl)chroman-6-sulfonamido)acetic acid [Example 23]” the IC50 (read-out: Data Range*) was 2 to 100 nM and the IC50 (read-out: LE_LG586PNP_DR (IC50)) was 3 nM.
